The text below walks through data of patent US20240382474A1, “ENPP1 MODULATORS AND USES THEREOF” (Vir Biotechnology, Inc., priority 2021, published 2024).

The assay has as its target T1, human ENPP1 enzymatic domain (Homo sapiens, UniProt P22413).
T1 construct: recombinant protein containing the human ENPP1 enzymatic domain; purchased Viva Biotech
T1 sequence (P22413 191-591 limits assumed): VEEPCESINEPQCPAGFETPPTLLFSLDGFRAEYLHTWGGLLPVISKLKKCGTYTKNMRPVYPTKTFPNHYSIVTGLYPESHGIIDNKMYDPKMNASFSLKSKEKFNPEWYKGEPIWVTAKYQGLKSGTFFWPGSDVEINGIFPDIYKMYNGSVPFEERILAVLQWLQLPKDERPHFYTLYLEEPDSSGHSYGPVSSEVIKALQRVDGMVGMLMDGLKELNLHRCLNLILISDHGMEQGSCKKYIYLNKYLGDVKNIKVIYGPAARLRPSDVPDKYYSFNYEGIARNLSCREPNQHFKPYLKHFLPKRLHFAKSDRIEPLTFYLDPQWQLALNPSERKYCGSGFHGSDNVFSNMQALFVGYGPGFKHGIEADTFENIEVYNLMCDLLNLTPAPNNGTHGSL
Put plainly: ENPP1 Enzymatic Inhibition Assay (2′3′-cGAMP substrate, AMP-Glo luminescence). It counts as biochemical. The conditions noted are these: 1 nM ENPP1, 20 uM 2′3′-cGAMP, 30 minutes at 37° C. As for the experimental part:
The inhibition of ENPP1's phosphodiesterase activity were tested in a purified enzymatic assay using 2′3′-cyclic GAMP as a substrate which allowed for the release of cleaved AMP to be monitored using a luminescent assay.
Putative inhibitors were diluted in assay buffer (50 mM Tris pH 8.0, 250 mM NaCl, 0.5 mM CaCl2), 1 uM ZnCl2, 1% DMSO) and pre-incubated for 15 minutes at 37° C. with recombinant protein containing the human ENPP1 enzymatic domain (Viva Biotech). The enzymatic reaction was initiated upon addition of the 2′3′-cGAMP substrate. The final reaction concentrations were 1 nM ENPP1 and 20 uM 2′3′-cGAMP substrate in a 25 uL volume. Inhibitor concentrations ranged from 10 uM to 0.056 nM. The reaction was incubated for 30 minutes at 37° C.
After reacting for 30 minutes, the amount of AMP generated from the cleavage of 2′3′-cGAMP was determined using the Promega AMP-Glo method according to the manufacturer's protocol. First, AMP-Glo reagent 1 was added and incubated with the reaction mix for 1 hour at room temperature. Second, AMP Detection solution was added and the mixture was incubated for an additional hour. The luminescence of the mixture was read on a Perkin Elmer Ensight plate reader.
The maximum and minimum levels of ENPP1 activity were established using no inhibitor and no enzyme controls, respectively. The activity observed using ENPP1 inhibitors was quantified as the percent of activity relative to these controls. IC50 values were calculated using CDD Vault by fitting a sigmoidal variable slope nonlinear regression model to the data.
`COc1ccc2c(Nc3ccc([S@](=N)(=O)NC[C@H](C)O)cc3)ccnc2c1` [Compound 37, (R)-N-((S)-2-hydroxypropyl)-4-((7-methoxyquinolin-4-yl)amino)benzenesulfonimidamide]: the IC50 (in general, the concentration that inhibits the measured activity by half) is < 10 nM.

Regarding `COc1ccc2c(Nc3ccc([S@@](=N)(=O)NC[C@H](C)O)cc3)ccnc2c1` [Compound 38, (S)-N-((S)-2-hydroxypropyl)-4-((7-methoxyquinolin-4-yl)amino)benzenesulfonimidamide], the IC50 was < 10 nM.

For `COc1ccc2c(Nc3ccc([S@](=N)(=O)N[C@@H](C)CO)cc3)ccnc2c1` [Compound 39, (R)-N-((S)-1-hydroxypropan-2-yl)-4-((7-methoxyquinolin-4-yl)amino)benzenesulfonimidamide], the 50% inhibitory concentration (IC50) is < 10 nM.

`COc1ccc2c(Nc3ccc([S@@](=N)(=O)N[C@@H](C)CO)cc3)ccnc2c1` [Compound 40, (S)-N-((S)-1-hydroxypropan-2-yl)-4-((7-methoxyquinolin-4-yl)amino)benzenesulfonimidamide]: the IC50 is 10 to 100 nM.

As for `COc1ccc2c(Nc3ccc([S@](=N)(=O)N[C@@H](C)c4ccnn4C)cc3)ccnc2c1` [Compound 41, (R)-4-((7-methoxyquinolin-4-yl)amino)-N-((S)-1-(1-methyl-1H-pyrazol-5-yl)ethyl)benzenesulfonimidamide], the 50% inhibitory concentration (IC50) was in the range of 10 to 100 nM.

On to `COc1ccc2c(Nc3ccc([S@@](=N)(=O)N[C@@H](C)c4ccnn4C)cc3)ccnc2c1` [Compound 42, (S)-4-((7-methoxyquinolin-4-yl)amino)-N-((S)-1-(1-methyl-1 H-pyrazol-5-yl)ethyl)benzenesulfonimidamide], for which the half-maximal inhibitory concentration (IC50) is < 10 nM.

Take `COc1ccc2c(Oc3ccc([S@](=N)(=O)NC[C@H](O)C(C)(C)C)cc3)ccnc2c1` [Compound 43, (R)-N-((R)-2-hydroxy-3,3-dimethylbutyl)-4-((7-methoxyquinolin-4-yl)oxy)benzenesulfonimidamide]: the concentration for half-maximal inhibition (IC50) is < 10 nM.

As for `COc1ccc2c(Oc3ccc([S@@](=N)(=O)NC[C@H](O)C(C)(C)C)cc3)ccnc2c1` [Compound 44, (S)-N-((R)-2-hydroxy-3,3-dimethylbutyl)-4-((7-methoxyquinolin-4-yl)oxy)benzenesulfonimidamide], the half-maximal inhibitory concentration (IC50) is 10 to 100 nM.

For `COc1ccc2c(Nc3ccc([S@](=N)(=O)NC[C@H](C)O)cc3F)ccnc2c1` [Compound 45, (R)-3-fluoro-N-((S)-2-hydroxypropyl)-4-((7-methoxyquinolin-4-yl)amino)benzenesulfonimidamide], the IC50 was in the range of 10 to 100 nM.

With `COc1ccc2c(Nc3ccc([S@@](=N)(=O)NC[C@H](C)O)cc3F)ccnc2c1` [Compound 46, (S)-3-fluoro-N-((S)-2-hydroxypropyl)-4-((7-methoxyquinolin-4-yl)amino)benzenesulfonimidamide], the IC50 was < 10 nM.

Turning to `COc1ccc2c(Nc3ccc([S@](=N)(=O)NC[C@H](C)O)c(F)c3)ccnc2c1` [Compound 47, (R)-2-fluoro-N-((S)-2-hydroxypropyl)-4-((7-methoxyquinolin-4-yl)amino)benzenesulfonimidamide], the IC50 was < 10 nM.

As to `COc1ccc2c(Nc3ccc([S@@](=N)(=O)NC[C@H](C)O)c(F)c3)ccnc2c1` [Compound 48, (S)-2-fluoro-N-((S)-2-hydroxypropyl)-4-((7-methoxyquinolin-4-yl)amino)benzenesulfonimidamide], the 50% inhibitory concentration (IC50) is < 10 nM.

Turning to `COc1ccc2c(Nc3ccc([S@](=N)(=O)NCCCn4cnnc4)cc3)ccnc2c1` [Compound 49, (R)-N-(3-(4H-1,2,4-triazol-4-yl)propyl)-4-((7-methoxyquinolin-4-yl)amino)benzenesulfonimidamide], the half-inhibitory concentration (IC50) is < 10 nM.

On to `COc1ccc2c(Nc3ccc([S@@](=N)(=O)NCCCn4cnnc4)cc3)ccnc2c1` [Compound 50, (S)-N-(3-(4H-1,2,4-triazol-4-yl)propyl)-4-((7-methoxyquinolin-4-yl)amino)benzenesulfonimidamide], for which the IC50 was < 10 nM.

In turn, `COc1cc2nccc(Nc3ccc([S@](=N)(=O)NC[C@@H](C)O)cc3)c2cc1OC` [Compound 51, (R)-4-((6,7-dimethoxyquinolin-4-yl)amino)-N-((R)-2-hydroxypropyl)benzenesulfonimidamide] displayed an IC50 of 10 to 100 nM.

For the compound `COc1cc2nccc(Nc3ccc([S@@](=N)(=O)NC[C@@H](C)O)cc3)c2cc1OC` [Compound 52, (S)-4-((6,7-dimethoxyquinolin-4-yl)amino)-N-((R)-2-hydroxypropyl)benzenesulfonimidamide], the IC50 was < 10 nM.

As for `COc1ccc2c(Nc3ccc([S@](=N)(=O)NCCO)cc3)ccnc2c1` [Compound 53, (R)-N-(2-hydroxyethyl)-4-((7-methoxyquinolin-4-yl)amino)benzenesulfonimidamide], the half-inhibitory concentration (IC50) is < 10 nM.

As for `COc1ccc2c(Nc3ccc([S@@](=N)(=O)NCCO)cc3)ccnc2c1` [Compound 54, (S)-N-(2-hydroxyethyl)-4-((7-methoxyquinolin-4-yl)amino)benzenesulfonimidamide], the IC50 was < 10 nM.

For the compound `COc1ccc2c(Nc3ccc([S@](=N)(=O)NC[C@@H](C)O)cc3)ccnc2c1` [Compound 55, (R)-N-((R)-2-hydroxypropyl)-4-((7-methoxyquinolin-4-yl)amino)benzenesulfonimidamide], the half-inhibitory concentration (IC50) was < 10 nM.

For `COc1cccc2c(Nc3ccc([S@](=N)(=O)NCCO)cc3)ccnc12` [Compound 57, (R)-N-(2-hydroxyethyl)-4-((8-methoxyquinolin-4-yl)amino)benzenesulfonimidamide], the IC50 was > 100 nM.

Take `COc1cccc2c(Nc3ccc([S@@](=N)(=O)NCCO)cc3)ccnc12` [Compound 58, (S)-N-(2-hydroxyethyl)-4-((8-methoxyquinolin-4-yl)amino)benzenesulfonimidamide]: the IC50 was < 10 nM.

As to `COc1ccc2c(Nc3ccc([S@](=N)(=O)NC[C@H](O)C(C)(C)C)cc3)ccnc2c1` [Compound 59, (R)-N-((R)-2-hydroxy-3,3-dimethylbutyl)-4-((7-methoxyquinolin-4-yl)amino)benzenesulfonimidamide], the IC50 was < 10 nM.

With `COc1ccc2c(Nc3ccc([S@@](=N)(=O)NC[C@H](O)C(C)(C)C)cc3)ccnc2c1` [Compound 60, (S)-N-((R)-2-hydroxy-3,3-dimethylbutyl)-4-((7-methoxyquinolin-4-yl)amino)benzenesulfonimidamide], the concentration for half-maximal inhibition (IC50) was < 10 nM.

`COc1cccc2c(Nc3ccc([S@](=N)(=O)NC[C@@H](C)O)cc3)ncnc12` [Compound 61, (R)-N-((R)-2-hydroxypropyl)-4-((8-methoxyquinazolin-4-yl)amino)benzenesulfonimidamide]: the concentration for half-maximal inhibition (IC50) is > 100 nM.

`COc1cccc2c(Nc3ccc([S@@](=N)(=O)NC[C@@H](C)O)cc3)ncnc12` [Compound 62, (S)-N-((R)-2-hydroxypropyl)-4-((8-methoxyquinazolin-4-yl)amino)benzenesulfonimidamide] returned an IC50 of 10 to 100 nM.

Take `COc1ccc2c(Nc3ccc([S@](=N)(=O)NC[C@@H](C)O)cc3)ncnc2c1` [Compound 63, (R)-N-((R)-2-hydroxypropyl)-4-((7-methoxyquinazolin-4-yl)amino)benzenesulfonimidamide]: the half-maximal inhibitory concentration (IC50) is 10 to 100 nM.

On to `COc1ccc2c(Nc3ccc([S@@](=N)(=O)NC[C@@H](C)O)cc3)ncnc2c1` [Compound 64, (S)-N-((R)-2-hydroxypropyl)-4-((7-methoxyquinazolin-4-yl)amino)benzenesulfonimidamide], for which the half-inhibitory concentration (IC50) was < 10 nM.

As to `COc1cc2nccc(Nc3ccc([S@@](=N)(=O)NC4CC4)cc3)c2cc1F` [Compound 67, (S)-N-cyclopropyl-4-((6-fluoro-7-methoxyquinolin-4-yl)amino)benzenesulfonimidamide], the IC50 was < 10 nM.

Turning to `COc1cc2nccc(Nc3ccc([S@@](=N)(=O)NC[C@@H](C)O)cc3)c2cc1F` [Compound 68, (S)-4-((6-fluoro-7-methoxyquinolin-4-yl)amino)-N-((R)-2-hydroxypropyl)benzenesulfonimidamide], the IC50 was < 10 nM.

Turning to `COc1ccc2c(Nc3ccc([S@@](=N)(=O)NC[C@@H](C)OC(C)=O)cc3)ccnc2c1` [Compound 69, (R)-1-(((S)-4-((7-methoxyquinolin-4-yl)amino)phenyl)sulfonoamidimidamido)propan-2-yl acetate], the concentration for half-maximal inhibition (IC50) was < 10 nM.
